The record followed here is patent publication US11104648B2, “Pyrazole derivative” (Zhejiang Research Institute of Chemical Industry Co., Ltd., priority 2018, dated 2021).

Common to all, as to assay type: in vivo
Assay [1] relates to Eggs of Tetranychus Cinnabarinus. In words: Activity assay of eggs of Tetranychus cinnabarinus (spray method, ovicidal). The conditions noted are these: for pest or weed control at 5 µg/mL / pest or weed control at 2 µg/mL: Tetranychus cinnabarinus. The protocol:
According to the solubility of the test compound, the crude drug was dissolved in N N-dimethylformamide, and then prepared into a test solution of the desired concentration with 1‰ Tween 80 aqueous solution. The content of N. N-dimethylformamide in the solution should not exceed 10%.
Spray method. The broad bean leaves with petioles were cut and inserted into a bottle with water. A certain number of female mites were placed, 24h later, adult mites were removed, and spray treatment was performed in 24 h. The experiment was repeated three times, and a blank control was set, and placed to an observation room (26±2° C., humidity 70%˜80%, 16h light per day) for culture. When the blank control group was incubated, the results were investigated. The non-incubated ones were used as death for investigation.

Assay [2] concerns Tetranychus cinnabarinus Nymphs. In words: Activity assay of Tetranychus cinnabarinus nymphs (spray on broad bean leaves). The protocol:
According to the solubility of the test compound, the crude drug was dissolved in N, N-dimethylformamide, and then prepared into a test solution of the desired concentration with 1‰ Tween 80 aqueous solution. The content of N,N-dimethylformamide in the solution should not exceed 10%.
The broad bean leaves with petioles were cut and inserted into a small bottle with water. A certain number of brightly colored, active female adult mites were placed, 24h later, adult mites were removed, and leaves with insufficient eggs were removed. When eggs were hatched and grew into nymphs, spray treatment was performed. The experiment was repeated three times, and a blank control was set, and placed to an observation room (26±2° C., humidity 70%˜80%, 16h light per day) for culture. 48 h later, the results were investigated. The nymphs were gently touched during investigation, and if no response, they were regarded as deaths.

The subject of assay [3] is adult Tetranychus cinnabarinus. In words: Activity assay of adult Tetranychus cinnabarinus (whole-plant spray on bean seedlings). The conditions noted are these: 48 h; for pest or weed control at 1.25 µg/mL: concentration 1.25 mg/L. The protocol: According to the solubility of the test compound, the crude drug was dissolved in N, N-dimethlfornamide, and then prepared into a test solution of the desired concentration with 1‰ Tween 80 aqueous solution. The content of N,N-dimethylformamide in the solution should not exceed 10%.
Two euphylla bean seedlings were taken, after inoculated with adult Tetranychus cinnabarinus and the base number was investigated, whole plants were sprayed with a hand-held sprayer. The experiment was repeated three times for each treatment, after treatment, placed in a standard observation room after treatment, to investigate the survival number of mites in 48 hand calculate the death rate.

The mark [4] stands for this setting: 48 h, concentration 2.5 mg/L, read-out: nymph-killing activity.
Where [5] appears, read: concentration 2.5 mg/L, read-out: adult mite-killing activity.
Where [6] appears, read: concentration 5 mg/L, spray, non-incubated eggs counted as dead, read-out: ovicidal activity.
[7] abbreviates: 48 h, concentration 0.5 mg/L, read-out: nymph-killing activity.
The mark [8] stands for this setting: 48 h, nymphs, concentration 0.5 mg/L, parallel determination, read-out: Death rate (%).
[9] abbreviates: adult mites, parallel determination, read-out: Death rate (%).
Where [10] appears, read: read-out: adult mite-killing activity.
[11] abbreviates: concentration 2 mg/L, spray, read-out: ovicidal activity.
Setting [12] is: eggs, concentration 2 mg/L, parallel determination, read-out: Death rate (%).

Where two headings read alike, the source gives them in different places.

With `COC(=O)OC(C)O/C(=C(/C#N)c1ccc(C(C)(C)C)cc1)c1c(Cl)c(C)nn1C` (racemic) [Compound 675], the “Death rate (%)” value in assay [1] (eggs, concentration 2 mg/L, parallel determination) is recorded as 100%.
As to `CC(=O)OCO/C(=C(/C#N)c1ccc(C(C)(C)C)cc1)c1cc(C)nn1C` [Compound 1], the pest or weed control at 2.5 µg/mL was at least 95% in assay [2] (setting [4]) and at least 90% in assay [3] (setting [5]). Further, the pest or weed control at 5 µg/mL in assay [1] (setting [6]) was at least 90%.
As for `CCC(=O)OCO/C(=C(/C#N)c1ccc(C(C)(C)C)cc1)c1cc(C)nn1C` [Compound 2], the pest or weed control at 2.5 µg/mL in assay [2] (setting [4]) was at least 95%; in assay [3] (setting [5]), at least 90%. Also, the pest or weed control at 5 µg/mL in assay [1] (setting [6]) was at least 90%.
In the case of `CCCC(=O)OCO/C(=C(/C#N)c1ccc(C(C)(C)C)cc1)c1cc(C)nn1C` [Compound 3], the pest or weed control at 2.5 µg/mL is at least 95% in assay [2] (setting [4]) and at least 90% in assay [3] (setting [5]). Further, the pest or weed control at 5 µg/mL in assay [1] (setting [6]) was at least 90%.
`Cc1cc(/C(OCOC(=O)C(C)C)=C(\C#N)c2ccc(C(C)(C)C)cc2)n(C)n1` [Compound 4]: the pest or weed control at 2.5 µg/mL in assay [2] (setting [4]) was at least 95%; in assay [3] (setting [5]), at least 90%. Also, the pest or weed control at 5 µg/mL in assay [1] (setting [6]) is at least 90%.
Turning to `Cc1cc(/C(OCOC(=O)C(C)(C)C)=C(\C#N)c2ccc(C(C)(C)C)cc2)n(C)n1` [Compound 5], the results for the pest or weed control at 2.5 µg/mL in assay [2] (setting [4]) and in assay [3] (setting [5]) were at least 95% and at least 90%, respectively. Moreover, the pest or weed control at 5 µg/mL in assay [1] (setting [6]) is at least 90%.
`CCCCC(=O)OCO/C(=C(/C#N)c1ccc(C(C)(C)C)cc1)c1cc(C)nn1C` [Compound 6]: the pest or weed control at 2.5 µg/mL is at least 95% in assay [2] (setting [4]) and at least 90% in assay [3] (setting [5]). The pest or weed control at 5 µg/mL in assay [1] (setting [6]) was at least 90%.
As to `Cc1cc(/C(OCOC(=O)CC(C)C)=C(\C#N)c2ccc(C(C)(C)C)cc2)n(C)n1` [Compound 7], the pest or weed control at 2.5 µg/mL was at least 95% in assay [2] (setting [4]) and at least 90% in assay [3] (setting [5]). The pest or weed control at 5 µg/mL in assay [1] (setting [6]) is at least 90%.
`CC(C)(C)C(=O)OCOC(=C(C#N)c1ccc(C(C)(C)C)cc1)c1ccccc1C(F)(F)F` [Compound 8-1, reference compound]: the pest or weed control at 0.5 µg/mL is under 30% in assay [2] (setting [7]) and 25% in assay [2] (setting [8]). Moreover, the pest or weed control at 2.5 µg/mL in assay [2] (setting [4]) and in assay [3] (setting [5]) was under 80% each time. Besides, the pest or weed control at 1.25 µg/mL in assay [3] (setting [9]) was 45%; in assay [3] (setting [10]), under 50%. Also, the pest or weed control at 2 µg/mL in assay [1] (setting [11]) and in assay [1] (setting [12]) was 0% throughout. Moreover, in assay [1] (setting [6]), the pest or weed control at 5 µg/mL was under 30%.
Take `CC(=O)OCOC(=C(C#N)c1ccc(C(C)(C)C)cc1)c1ccccc1C(F)(F)F` [Compound 8-2, reference compound]: the pest or weed control at 0.5 µg/mL was under 30% in assay [2] (setting [7]) and 0% in assay [2] (setting [8]). Further, the pest or weed control at 2.5 µg/mL in assay [2] (setting [4]) and in assay [3] (setting [5]) was under 80% each time. For the same compound, the values for the pest or weed control at 1.25 µg/mL in assay [3] (setting [9]) and in assay [3] (setting [10]) were 30% and under 50%, respectively. Also, the pest or weed control at 2 µg/mL in assay [1] (setting [11]) and in assay [1] (setting [12]) was 0% in each case. For the same compound, the pest or weed control at 5 µg/mL in assay [1] (setting [6]) was under 30%.
With `CCCC(=O)OC(C)OC(=C(C#N)c1ccc(C(C)(C)C)cc1)c1ccccc1C(F)(F)F` (stereo not shown) [Compound 8-3, reference compound], the figures for the pest or weed control at 0.5 µg/mL in assay [2] (setting [7]) and in assay [2] (setting [8]) were under 30% and 30%, respectively. The pest or weed control at 2.5 µg/mL in assay [2] (setting [4]) and in assay [3] (setting [5]) was under 80% throughout. Besides, the pest or weed control at 1.25 µg/mL in assay [3] (setting [9]) was 45%; in assay [3] (setting [10]), under 50%. In addition, the pest or weed control at 2 µg/mL in assay [1] (setting [11]) and in assay [1] (setting [12]) was 0% in each case. In addition, the pest or weed control at 5 µg/mL in assay [1] (setting [6]) is under 30%.
As to `CCCC(=O)OCOC(=C(C#N)c1ccc(C(C)(C)C)cc1)c1ccccc1C(F)(F)F` [Compound 8-4, reference compound], the figures for the pest or weed control at 0.5 µg/mL in assay [2] (setting [7]) and in assay [2] (setting [8]) were under 30% and 15%, respectively. Also, the pest or weed control at 2.5 µg/mL in assay [2] (setting [4]) and in assay [3] (setting [5]) was under 80% in each case. The pest or weed control at 1.25 µg/mL in assay [3] (setting [9]) is 50%; in assay [3] (setting [10]), under 50%. The pest or weed control at 2 µg/mL in assay [1] (setting [11]) and in assay [1] (setting [12]) was 0% throughout. Moreover, in assay [1] (setting [6]), the pest or weed control at 5 µg/mL is under 30%.
In the case of `COCC(=O)OCO/C(=C(/C#N)c1ccc(C(C)(C)C)cc1)c1cc(C)nn1C` [Compound 8], the pest or weed control at 2.5 µg/mL in assay [2] (setting [4]) is at least 95%; in assay [3] (setting [5]), at least 90%. The pest or weed control at 5 µg/mL in assay [1] (setting [6]) was at least 90%.
Turning to `Cc1cc(/C(OCOC(=O)C2CC2)=C(\C#N)c2ccc(C(C)(C)C)cc2)n(C)n1` [Compound 9], the pest or weed control at 2.5 µg/mL in assay [2] (setting [4]) is at least 95%; in assay [3] (setting [5]) it was at least 90%. Further, the pest or weed control at 5 µg/mL in assay [1] (setting [6]) was at least 90%.
As to `CSCC(=O)OCO/C(=C(/C#N)c1ccc(C(C)(C)C)cc1)c1cc(C)nn1C` [Compound 10], the pest or weed control at 2.5 µg/mL in assay [2] (setting [4]) was at least 95%; in assay [3] (setting [5]), at least 90%. The pest or weed control at 5 µg/mL in assay [1] (setting [6]) was at least 90%.
For the compound `Cc1cc(/C(OCOC(=O)C2CCCCC2)=C(\C#N)c2ccc(C(C)(C)C)cc2)n(C)n1` [Compound 11], the pest or weed control at 2.5 µg/mL in assay [2] (setting [4]) is at least 95%; in assay [3] (setting [5]), at least 90%. For the same compound, the pest or weed control at 5 µg/mL in assay [1] (setting [6]) is at least 90%.
Consider `Cc1cc(/C(OCOC(=O)CF)=C(\C#N)c2ccc(C(C)(C)C)cc2)n(C)n1` [Compound 12], for which the pest or weed control at 2.5 µg/mL in assay [2] (48 h, read-out: nymph-killing activity) is at least 95%; in assay [3] (setting [10]) it was at least 90%. Further, the pest or weed control at 5 µg/mL in assay [1] (read-out: ovicidal activity) is at least 90%.
On to `Cc1cc(/C(OCOC(=O)C(F)(F)F)=C(\C#N)c2ccc(C(C)(C)C)cc2)n(C)n1` [Compound 13], for which the pest or weed control at 2.5 µg/mL in assay [2] (setting [4]) was at least 95%; in assay [3] (setting [5]) it was at least 90%. Further, the pest or weed control at 5 µg/mL in assay [1] (setting [6]) was at least 90%.
In the case of `Cc1cc(/C(OCOC(=O)c2ccccc2)=C(\C#N)c2ccc(C(C)(C)C)cc2)n(C)n1` [Compound 14], the results for the pest or weed control at 2.5 µg/mL in assay [2] (setting [4]) and in assay [3] (setting [5]) were at least 95% and at least 90%, respectively. In addition, the pest or weed control at 5 µg/mL in assay [1] (setting [6]) is at least 90%.
`Cc1cc(/C(OCOC(=O)Cc2ccccc2)=C(\C#N)c2ccc(C(C)(C)C)cc2)n(C)n1` [Compound 15]: the pest or weed control at 2.5 µg/mL in assay [2] (concentration 2.5 mg/L, 48 h, read-out: nymph-killing activity) was at least 95%; in assay [3] (setting [5]) it was at least 90%. For the same compound, the pest or weed control at 5 µg/mL in assay [1] (setting [6]) was at least 90%.
For the compound `CCC(C)(C)C(=O)OCO/C(=C(/C#N)c1ccc(C(C)(C)C)cc1)c1cc(C)nn1C` [Compound 16], the pest or weed control at 2.5 µg/mL was at least 95% in assay [2] (setting [4]) and at least 90% in assay [3] (setting [5]). In addition, the pest or weed control at 5 µg/mL in assay [1] (setting [6]) is at least 90%.
Consider `C=CC(=O)OCO/C(=C(/C#N)c1ccc(C(C)(C)C)cc1)c1cc(C)nn1C` [Compound 17], for which the values for the pest or weed control at 2.5 µg/mL in assay [2] (setting [4]) and in assay [3] (setting [5]) were at least 95% and at least 90%, respectively. Also, the pest or weed control at 5 µg/mL in assay [1] (setting [6]) is at least 90%.
As for `CC(=O)OC(C)O/C(=C(/C#N)c1ccc(C(C)(C)C)cc1)c1cc(C)nn1C` (stereo not shown) [Compound 26], the results for the pest or weed control at 2.5 µg/mL in assay [2] (setting [4]) and in assay [3] (setting [5]) were at least 95% and at least 90%, respectively. Moreover, the pest or weed control at 5 µg/mL in assay [1] (setting [6]) is at least 90%.
In the case of `CCC(=O)OC(C)O/C(=C(/C#N)c1ccc(C(C)(C)C)cc1)c1cc(C)nn1C` (stereo not shown) [Compound 27], the pest or weed control at 2.5 µg/mL is at least 95% in assay [2] (setting [4]) and at least 90% in assay [3] (setting [5]). Moreover, in assay [1] (setting [6]), the pest or weed control at 5 µg/mL was at least 90%.
